Common to all, as to assay: Camptothecin drug cellular activity test (MTS cell proliferation)
Holding throughout (type): cell-based, human

The subject of one experiment is A431. The conditions noted are these: read-out: Cell Viability, A431. As to the method:
(§1) The cytotoxic activity of camptothecin drugs was determined by the following experimental process: Camptothecin drugs were added to cell culture media that grows human tumors cells that express A431, Fadu, Bxpc-3 (EGFR-positive cells) and U87-MG, SW620 (negative control cells). Cell survival rates were measured after the cells were cultured for 72 hours. Cell-based in vitro experiments are used to determine cell survival rate, cytotoxicity, and programmed cell death induced by the camptothecin drug of the present application.
(§2) The in vitro efficacy of the camptothecin drugs was determined by cell proliferation test. CellTiter 96® Aqueous One Solution Cell Proliferation Assay is commercially available (Promega Corp., Madison, Wis.). CellTiter 96® AQueous One Solution Cell Proliferation Assay(a) is a colorimetric method to detect the number of living cells in cell proliferation and cytotoxicity experiments. This reagent contains a novel tetrazolium compound [3-(4, 5-dimethylthiazol-2-yl)-5-(3-carboxymethoxyphenyl)-2-(4-sulfophenyl)-2H-tetrazolium, inner salt; MTS] and an electronic coupling agent (phenazine ethosulfate; PES). PES has enhanced chemical stability, which allows it to be mixed with MTS to form a stable solution. This convenient “single solution” mode is an improvement on the basis of the first generation CellTiter 96*AQueous Assay. The electronic coupling agent PMS and MTS solution used in the CellTiter 96*AQueous Assay are provided separately. MTS (Owen's reagent) is reduced by cell organisms into a colored formazan product (Illustration 1), which can be directly dissolved in the culture medium.
(§3) The conversion in all likelihood is completed under the action of NADPH or NADH produced by dehydrogenases in metabolically active cells. When testing, just add a small amount of CellTiter 96® AQueous One Solution Reagent directly to the culture plate well, incubate for 1-4 hours, and then read the absorbance value at 490 nm with a microplate reader.
(§4) The amount of formazan detected at 490 nm is directly proportional to the number of viable cells in culture. Since the formazan product of MTS is soluble in tissue culture medium, CellTiter 96® AQueous One Solution Assay has fewer steps than MTT or INT methods.
(§5) In the present application, A431, Fadu, Bxpc-3 (EGFR positive expressing cells) and U87-MG, SW620 (negative control cells) are used as the research system for in vitro drug efficacy detection. In a 96-well plate, use an appropriate cell density for plating, and after 24 hours, add camptothecin. After 24 hours, dilute the camptothecin drug with the test medium (1 uM start, 5-fold dilution, 9 concentrations, add test medium in the tenth column as a blank control), and add the diluted camptothecin drug to the corresponding cell wells. The cell wells were then shaken with a microplate shaker (model: MX100-4A) for 3 minutes at a shaking speed of 550 rpm/min. After shaking, they were placed in a carbon dioxide incubator and incubated for 3 days. After 3 days, add 20 uL MTS (Promega, G3581) to each well for 2 hours, and the microplate reader (Molecular Device, model: SpectraMAX190) reads at […]. By detecting the activity of dehydrogenase in mitochondria, the inhibitory effect of camptothecin drugs on cell proliferation was evaluated.

The test system of another experiment is U87-MG. As to conditions: read-out: Cell Viability, U87-MG. As to the method: as §1, §2, §3, §4, §5
Another experiment relates to BXPC-3. The conditions noted are these: read-out: Cell Viability, BXPC-3. As to the method: as §1, §2, §3, §4, §5
A further experiment concerns SW620. The conditions noted are these: read-out: Cell Viability, SW620. As to the method:
as §1, §2, §3, §4, §5

The test system of a further experiment is Fadu. As to conditions: read-out: Cell Viability, Fadu. As to the method:
as §1, §2, §3, §4, §5

Where [1] appears, read: Homo sapiens, A-431, 72 h, A431, EGFR-positive cells, 3 days incubation, MTS.
The mark [2] stands for this setting: Homo sapiens, U-87 MG, 72 h, U87-MG, negative control cells, 3 days incubation, MTS.
[3] abbreviates: Homo sapiens, 72 h, BXPC-3, EGFR-positive cells, 3 days incubation, MTS.
Where [4] appears, read: Homo sapiens, SW-620, 72 h, SW620, negative control cells, 3 days incubation, MTS.
Where [5] appears, read: Homo sapiens, 72 h, Fadu, EGFR-positive cells, 3 days incubation, MTS.

Where two headings read alike, the source gives them in different places.

As to `CC[C@@]1(O)C(=O)OCc2c1cc1n(c2=O)Cc2c-1nc1cc(F)c(C)c3c1c2[C@@H](NC(=O)[C@H](O)c1ccc2c(c1)OCO2)CC3` [Compound 30], the IC50 amounted to 19.9 nM with A431 (Homo sapiens, A-431, 72 h); 29.9 nM in the experiment on U87-MG (Homo sapiens, U-87 MG, 72 h); 34.2 nM in the experiment with BXPC-3 (Homo sapiens, BXPC-3, 72 h); 2.25 nM in the experiment on SW620 (Homo sapiens, SW-620, 72 h); 19.2 nM in the experiment with Fadu (Homo sapiens, FaDu, 72 h).
Taken in the same sequence, the figures for `CC[C@@]1(O)C(=O)OCc2c1cc1n(c2=O)Cc2c-1nc1cc(F)c(C)c3c1c2[C@@H](NC(=O)[C@H](O)c1cc(F)cc(F)c1)CC3` [Compound 29] were 19.6 nM, 23.6 nM, 90.1 nM, 2.15 nM and 41.3 nM.
As for `CCc1c2c(nc3ccc(O)cc13)-c1cc3c(c(=O)n1C2)COC(=O)[C@]3(O)CC` [SN38, reference compound], the IC50 with A431 (A431, EGFR-positive cells, 3 days incubation, MTS) amounted to 13.6 nM; with U87-MG (U87-MG, negative control cells, 3 days incubation, MTS), 15.7 nM; in the experiment on BXPC-3 (BXPC-3, EGFR-positive cells, 3 days incubation, MTS) it was 120 nM; in the experiment on SW620 (SW620, negative control cells, 3 days incubation, MTS), 3.28 nM; in the experiment with Fadu (Fadu, EGFR-positive cells, 3 days incubation, MTS), 42.1 nM.
As to `CC[C@@]1(O)C(=O)OCc2c1cc1n(c2=O)Cc2c-1nc1cc(F)c(C)c3c1c2[C@@H](NC(=O)C(O)c1ccccc1)CC3` (stereo partly drawn) [Compound 28], the IC50 worked out at 5.12 nM with A431 (Homo sapiens, A-431, 72 h); 18.3 nM in the experiment with U87-MG (Homo sapiens, U-87 MG, 72 h); 81 nM in the experiment on BXPC-3 (Homo sapiens, BXPC-3, 72 h); 11.9 nM in the experiment on SW620 (Homo sapiens, SW-620, 72 h); 14.2 nM with Fadu (Homo sapiens, FaDu, 72 h).
The corresponding values for `CC[C@@]1(O)C(=O)OCc2c1cc1n(c2=O)Cc2c-1nc1cc(F)c(C)c3c1c2[C@@H](NC(=O)C1(O)CCCC1)CC3` [Compound 25] are 11.7 nM, 10.4 nM, 15.8 nM, 1.5 nM and 41 nM.
Turning to `CC[C@@]1(O)C(=O)OCc2c1cc1n(c2=O)Cc2c-1nc1cc(F)c(C)c3c1c2[C@@H](NC(=O)[C@H](C)O)CC3` [Compound 2], the IC50 with A431 (setting [1]) came out at 40.9 nM; in the experiment with U87-MG (setting [2]) it was 7.4 nM; with BXPC-3 (setting [3]), 38.8 nM; in the experiment with SW620 (setting [4]), 10.4 nM; in the experiment with Fadu (setting [5]) it was 11.1 nM.
For `CC[C@@]1(O)C(=O)OCc2c1cc1n(c2=O)Cc2c-1nc1cc(F)c(C)c3c1c2[C@H](NC(=O)[C@H](O)C(F)(F)F)CC3` [Compound 12], the IC50 turned out to be 15.5 nM in the experiment with A431 (setting [1]); 0.06 nM in the experiment with U87-MG (setting [2]); 1.6 nM in the experiment on BXPC-3 (setting [3]); 0.06 nM with SW620 (setting [4]); 0.002 nM in the experiment with Fadu (setting [5]).
With `CC[C@H](O)C(=O)N[C@H]1CCc2c(C)c(F)cc3nc4c(c1c23)Cn1c-4cc2c(c1=O)COC(=O)[C@]2(O)CC` [Compound 31], the IC50 was 14.8 nM with A431 (Homo sapiens, A-431, 72 h); 10.8 nM with U87-MG (Homo sapiens, U-87 MG, 72 h); 55.4 nM in the experiment with BXPC-3 (Homo sapiens, BXPC-3, 72 h); 17.5 nM with SW620 (Homo sapiens, SW-620, 72 h); 17.5 nM in the experiment with Fadu (Homo sapiens, FaDu, 72 h).
In the case of `CC[C@@]1(O)C(=O)OCc2c1cc1n(c2=O)Cc2c-1nc1cc(F)c(C)c3c1c2[C@H](NC(=O)[C@@H](O)C(F)(F)F)CC3` [Compound 13], the IC50 is 6.37 nM in the experiment on A431 (setting [1]); 0.32 to 1.6 nM with U87-MG (setting [2]); 40 nM in the experiment with BXPC-3 (setting [3]); 1.06 nM in the experiment with SW620 (setting [4]); 0.06 nM in the experiment on Fadu (setting [5]).

The values are drawn from patent US20220378928A1, “A Camptothecin Drug and Its Antibody Conjugate Thereof” (priority 2020, published 2022).
